Converted amounts (≈) assume the structure as drawn. Like-named read-outs stand apart in the source and are kept apart here.
How the values were obtained:
[1] = biological target: T1, γ-GTP derived from bovine kidney (Bos taurus, UniProt G3N2D8); test: Measurement of γ-GTP activity with the substrate, bovine sample (rate assay, 410 nm); assay type: biochemical; conditions: relative to Comparative Example 1 taken as 100, 37° C., 5 min
T1 construct: γ-GTP derived from porcine kidney or bovine kidney; from tissue; host or cells: bovine kidney
T1 sequence (G3N2D8 1-379 limits assumed): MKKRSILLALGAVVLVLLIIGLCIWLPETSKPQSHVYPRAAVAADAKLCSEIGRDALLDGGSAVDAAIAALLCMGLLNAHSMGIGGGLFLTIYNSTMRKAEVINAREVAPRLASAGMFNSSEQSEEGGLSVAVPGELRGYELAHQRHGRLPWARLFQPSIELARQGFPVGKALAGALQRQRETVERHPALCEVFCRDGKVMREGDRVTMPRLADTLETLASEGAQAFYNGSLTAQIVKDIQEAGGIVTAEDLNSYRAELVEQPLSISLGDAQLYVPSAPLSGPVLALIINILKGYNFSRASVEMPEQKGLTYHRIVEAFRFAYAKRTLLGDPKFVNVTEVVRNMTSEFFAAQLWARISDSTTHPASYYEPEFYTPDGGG
T1 sequence (G3N2D8 380-568 limits assumed): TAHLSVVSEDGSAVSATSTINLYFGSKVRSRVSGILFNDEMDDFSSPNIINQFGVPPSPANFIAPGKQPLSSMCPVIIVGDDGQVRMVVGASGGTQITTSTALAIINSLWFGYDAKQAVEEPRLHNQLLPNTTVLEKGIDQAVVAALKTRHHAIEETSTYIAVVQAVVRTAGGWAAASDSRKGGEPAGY
Protocol: (§1) Measurement of γ-GTP activity
(§2) 100 Millimols of tris(hydroxymethyl)aminomethane and 60 mmols of glycylglycine were added in 800 ml of deionized water, and pH of its solution was adjusted to 8.2 (at 25° C.) with hydrochloric acid, after which the resulting solution was made up to 1 liter with deionized water.
(§3) In deionized water was dissolved 15 mmols of the γ-L-glutamyl-3-hydroxymethyl-4-nitroanilide obtained in Example 1 to make a total volume of 1 liter.
(§4) As samples, there were used human serum and 7% aqueous bovine albumin solutions containing γ-GTP derived from porcine kidney or bovine kidney (hereinafter abbreviated as parcine sample and bovine sample, respectively).
(§5) To 50 μl of each sample was added 2.0 ml of the buffer solution .circle.1 , followed by preincubation at 37° C. for 3 minutes, and 0.5 ml of the substrate solution .circle.2 was added. After sufficient mixing, the resulting mixture was allowed to stand for 1 minute, after which the increase rate of absorbance at 410 nm was measured, and the γ-GTP activity value (IU/l) in the sample was calculated from the molecular absorption coefficient (7.6×10^6 cm^2 /mol) of 3-hydroxymethyl-4-nitroaniline generated.
(§6) 100 mmols of tris(hydroxymethyl)aminomethane and 60 mmols of glycylglycine were added in 800 ml of deionized water, and pH of its solution was adjusted to 8.2 (at 25° C.) with hydrochloric acid, after which the resulting solution was made up to 1 liter with deionized water.
(§7) In deionized water was dissolved 15 mmols of the γ-L-glutamyl-3-(β-hydroxyethyl)-4-nitroanilide obtained in Example 3 to make a total volume of 1 liter.
(§8) The same samples as in Example 5 were used.
as §5, with “(7.3×10^6” for “(7.6×10^6”, “3-(β-hydroxyethyl)-4-nitroaniline” for “3-hydroxymethyl-4-nitroaniline”, “generated. […]” for “generated.”
as §5, with “(8.8×10^6” for “(7.6×10^6”, “p-nitroaniline” for “3-hydroxymethyl-4-nitroaniline”, “generated. […]” for “generated.”

[2] = biological target: T2, γ-GTP derived from porcine kidney (Sus scrofa, UniProt P20735); test: Measurement of γ-GTP activity with the substrate, porcine sample (rate assay, 410 nm); assay type: biochemical; conditions: relative to Comparative Example 1 taken as 100, 37° C., 5 min
T2 construct: γ-GTP derived from porcine kidney or bovine kidney; from tissue; host or cells: porcine kidney
T2 sequence (P20735 1-379 limits assumed): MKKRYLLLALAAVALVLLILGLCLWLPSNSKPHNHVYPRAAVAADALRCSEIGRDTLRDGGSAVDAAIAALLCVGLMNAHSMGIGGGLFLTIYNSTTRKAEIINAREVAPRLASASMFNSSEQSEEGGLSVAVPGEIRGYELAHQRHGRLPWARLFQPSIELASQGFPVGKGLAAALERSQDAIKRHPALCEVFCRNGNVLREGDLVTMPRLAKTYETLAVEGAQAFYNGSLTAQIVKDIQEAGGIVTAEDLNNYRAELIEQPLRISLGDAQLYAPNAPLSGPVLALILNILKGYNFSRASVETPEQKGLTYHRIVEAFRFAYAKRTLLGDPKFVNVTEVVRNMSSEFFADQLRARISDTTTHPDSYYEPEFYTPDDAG
T2 sequence (P20735 380-568 limits assumed): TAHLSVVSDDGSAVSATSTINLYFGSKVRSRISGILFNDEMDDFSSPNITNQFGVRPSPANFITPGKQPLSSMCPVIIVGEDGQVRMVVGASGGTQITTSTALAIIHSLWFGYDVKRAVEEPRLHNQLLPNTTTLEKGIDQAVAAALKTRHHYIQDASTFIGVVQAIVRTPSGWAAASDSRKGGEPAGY
Protocol: as §1, §2, §3, §4, §5, §6, §7, §8
as §5, with “(7.3×10^6” for “(7.6×10^6”, “3-(β-hydroxyethyl)-4-nitroaniline” for “3-hydroxymethyl-4-nitroaniline”, “generated. […]” for “generated.”
as §5, with “(8.8×10^6” for “(7.6×10^6”, “p-nitroaniline” for “3-hydroxymethyl-4-nitroaniline”, “generated. […]” for “generated.”

γ-GTP = test: Difference in reactivity with γ-GTPs derived from various sources (human serum, porcine, bovine); assay type: biochemical; conditions: for Difference between max. and min. activity values: human serum, porcine and bovine samples, relative values, Comparative Example 1 = 100
Protocol: as §4, §5
as §5, with “(7.3×10^6” for “(7.6×10^6”, “3-(β-hydroxyethyl)-4-nitroaniline” for “3-hydroxymethyl-4-nitroaniline”
as §5, with “(8.8×10^6” for “(7.6×10^6”, “p-nitroaniline” for “3-hydroxymethyl-4-nitroaniline”
as §5, with “subdrate” for “substrate”, “([…]” for “(7.6×10^6 cm^2”, “3-carboxy-4-nitroaniline” for “3-hydroxymethyl-4-nitroaniline”
In Table 1, the values of Comparative Example 2 and Examples 5 and 6 are relative γ-GTP activity values taking those of Comparative Example 1 as 100. The γ-GTP activity values (IU/l) were calculated from an absorbance change (ΔE/5 min) at 410 nm for 5 minutes after initiation of the reaction.

[3] = Solubility of the substrates in reagent solutions; assay type: physicochemical; conditions: pH 8.2, reagent solution (buffer:substrate solution 4:1)
Excerpt: In Table 2 are shown the solubility of the substrates for measuring γ-GTP activity used in Examples 5 and 6 and Comparative Examples 1 and 2 in reagent solutions (reagent solutions being obtained by mixing each buffer solution and each substrate solution in the ratio of 4:1), and the results of stability test on the substrate solutions in the individual cases.

γ-GTP (human serum) [4] = biological target: T3, γ-GTP (human serum) (Homo sapiens, UniProt P19440); test: Measurement of γ-GTP activity with the substrate, human serum sample (rate assay, 410 nm); assay type: biochemical; conditions: relative to Comparative Example 1 taken as 100, 37° C., 5 min
T3 construct: As samples, there were used human serum; from tissue; host or cells: human serum
T3 sequence (P19440 1-380 limits assumed): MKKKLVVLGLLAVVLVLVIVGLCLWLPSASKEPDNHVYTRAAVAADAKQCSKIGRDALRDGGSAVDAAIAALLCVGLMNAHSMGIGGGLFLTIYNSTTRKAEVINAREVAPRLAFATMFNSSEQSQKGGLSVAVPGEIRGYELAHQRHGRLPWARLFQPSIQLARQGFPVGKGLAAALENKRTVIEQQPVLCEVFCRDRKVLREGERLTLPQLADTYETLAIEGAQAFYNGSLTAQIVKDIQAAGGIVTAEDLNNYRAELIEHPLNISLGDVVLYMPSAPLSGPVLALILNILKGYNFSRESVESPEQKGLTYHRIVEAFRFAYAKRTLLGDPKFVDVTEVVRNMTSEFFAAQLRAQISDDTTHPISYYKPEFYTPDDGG
T3 sequence (P19440 381-569 limits assumed): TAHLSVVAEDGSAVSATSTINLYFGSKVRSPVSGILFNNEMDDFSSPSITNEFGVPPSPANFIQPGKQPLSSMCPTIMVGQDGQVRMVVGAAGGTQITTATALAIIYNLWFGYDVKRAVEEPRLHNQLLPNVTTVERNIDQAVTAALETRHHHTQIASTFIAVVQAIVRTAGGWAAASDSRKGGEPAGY
Protocol: as §1, §2, §3, §4, §5, §6, §7, §8
as §5, with “(7.3×10^6” for “(7.6×10^6”, “3-(β-hydroxyethyl)-4-nitroaniline” for “3-hydroxymethyl-4-nitroaniline”, “generated. […]” for “generated.”
as §5, with “(8.8×10^6” for “(7.6×10^6”, “p-nitroaniline” for “3-hydroxymethyl-4-nitroaniline”, “generated. […]” for “generated.”

γ-GTP (porcine kidney) [5] = conditions: reported by Leslie M. Shaw (Clinical Chemistry, 23, 79 (1977)); cited from earlier work
γ-GTP (human sera) = biological target: T4, γ-GTP (human sera) (Homo sapiens, UniProt P19440); test: Measurement of γ-GTP activity in human sera with Hitachi automatic analyzer Model 7150 (precision, correlation); assay type: biochemical; conditions: for Average values (measured values of human sera): n=50 human sera; for Average / Coefficient of variation (C.V.) / Maximum / Minimum: within-run precision
T4 construct: heavy and light chain from one precursor), not purified
T4 sequence (P19440 whole entry): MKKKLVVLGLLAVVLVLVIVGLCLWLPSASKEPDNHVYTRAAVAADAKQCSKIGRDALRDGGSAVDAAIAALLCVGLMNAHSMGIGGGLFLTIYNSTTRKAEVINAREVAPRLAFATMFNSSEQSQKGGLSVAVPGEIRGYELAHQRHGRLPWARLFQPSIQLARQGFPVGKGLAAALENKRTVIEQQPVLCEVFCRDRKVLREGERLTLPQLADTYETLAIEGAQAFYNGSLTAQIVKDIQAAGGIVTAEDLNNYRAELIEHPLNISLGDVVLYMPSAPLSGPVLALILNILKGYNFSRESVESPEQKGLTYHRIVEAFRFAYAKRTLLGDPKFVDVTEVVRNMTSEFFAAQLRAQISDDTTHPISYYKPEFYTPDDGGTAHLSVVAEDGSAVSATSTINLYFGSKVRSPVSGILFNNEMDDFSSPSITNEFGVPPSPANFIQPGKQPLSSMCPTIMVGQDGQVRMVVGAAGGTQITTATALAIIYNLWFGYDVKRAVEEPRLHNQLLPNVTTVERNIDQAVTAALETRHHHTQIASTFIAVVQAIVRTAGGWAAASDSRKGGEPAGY
Protocol: (§9) The buffer solution prepared in Example 5 was used.
(§10) In deionized water was dissolved 10 mmols of the γ-L-glutamyl-3-hydroxymethyl-4-nitroanilide obtained in Example 4 to make a total volume of 1 liter.
Fifty human sera were used as samples.
The buffer solution prepared in Comparative Example 2 was used.
The substrate solution prepared in Comparative Example 2 was used.
The same samples as in Example 7 were used.
Measurement was carried out under the same conditions as in Example 7, except that among CHEMISTRY PARAMETERS in Table 4, R1 VOLUME was changed to [320][100][NO], […] to [80][20][NO], and K FACTOR to 7123 (ε=9.5).
0.125M Tris-HCL buffer (pH 7.8, at 37° C., containing 96 mM glycylglycine and 13 mM magnesium chloride).
A 0.1N hydrochloric acid solution containing 20 mM of γ-L-glutamyl-4-nitroanilide.
Measurement was carried out under the same conditions as in Example 7, except that among CHEMISTRY PARAMETERS in Table 4, K FACTOR was changed to 6835 (ε=9.90).
In FIG. 1 is shown the correlation of the values measured for the individual human sera in Example 7 with those in Comparative Example 3. The coefficient of correlation, the regression equation, and the like, obtained by statistical processing, etc. are shown below.
In FIG. 2 is shown the correlation of the values measured for the individual human sera in Example 7 with those in Comparative Example 4. The coefficient of correlation, the regression equation, and the like, obtained by statistical processing, etc. are shown below.

γ-GTP (human serum) [6] = biological target: T3, γ-GTP (human serum); conditions: reported by Leslie M. Shaw (Clinical Chemistry, 23, 79 (1977)); cited from earlier work
[7] = background statement, cited from earlier work
γ-GTP (porcine kidney) [8] = test: Km value, γ-GTP from porcine kidney; assay type: biochemical
Excerpt: (§11) In Table 3 are shown the results of measuring, by a conventional method, Km values of γ-L-glutamyl-3-hydroxymethyl-4-nitroanilide, which is a compound of this invention, for each of γ-GTPs derived from human serum, porcine kidney and bovine kidney.
In Table 3 are also shown, for reference, Km values of γ-L-glutamyl-3-carboxy-4-nitroanilide and γ-L-glutamyl-p-nitroanilide reported by Leslie M. Shaw (Clinical Chemistry, 23, 79 (1977)).

[9] = biological target: T2, γ-GTP derived from porcine kidney; test: Calibration curve linearity with γ-GTP derived from porcine kidney in 7% aqueous bovine albumin solution; assay type: biochemical; conditions: 7% aqueous bovine albumin solution containing porcine kidney γ-GTP
Protocol: as §9, §10

γ-GTP (bovine kidney) = test: Km value, γ-GTP from bovine kidney; assay type: biochemical
Excerpt: as §11

[10] = suitable pH range for determining γ-GTP activity; background statement; cited from earlier work

Structure (SMILES)	relative γ-GTP activity value, bovine sample [1]	relative γ-GTP activity value, porcine sample [2]	Solubility ([3]; 5° C.) [µM]	relative γ-GTP activity value, human serum (γ-GTP (human serum) [4])	Average values (measured values of human sera) (γ-GTP (human sera))	Difference between max. and min. activity values (γ-GTP)	Km (γ-GTP (porcine kidney) [5]) [µM]	Km (γ-GTP (human serum) [6]) [µM]	solubility and stability after dissolution versus γ-glutamyl-p-nitroanilide (in words) [7]	further results
N[C@@H](CCC(=O)Nc1ccc([N+](=O)[O-])c(CCO)c1)C(=O)O [γ-L-glutamyl-3-(β-hydroxyethyl)-4-nitroanilide]	85	87	10000 (≈ 3.11 mg/mL)	95	–	10	–	–	–	–
N[C@@H](CCC(=O)Nc1ccc([N+](=O)[O-])c(C(=O)O)c1)C(=O)O [γ-L-glutamyl-3-carboxy-4-nitroanilide, reference compound]	94	127	≥ 100000	103	106.72	33	1630	1190	much superior	difference in reactivity with γ-GTPs derived from various sources (in words) (γ-GTP; various sources of γ-GTP): vary more widely in reactivity with γ-GTPs derived from various sources
N[C@@H](CCC(=O)Nc1ccc([N+](=O)[O-])c(S(=O)(=O)O)c1)C(=O)O [γ-L-glutamyl-3-sulfo-4-nitroanilide]	–	–	–	–	–	–	–	–	much superior	–

The next lines start with results.

relative γ-GTP activity value, bovine sample [1]	relative γ-GTP activity value, porcine sample [2]	Solubility ([3]; 5° C.) [µM]	relative γ-GTP activity value, human serum (γ-GTP (human serum) [4])	Average values (measured values of human sera) (γ-GTP (human sera))	Structure (SMILES)	Difference between max. and min. activity values (γ-GTP)	Km (γ-GTP (porcine kidney) [5]) [µM]	Km (γ-GTP (human serum) [6]) [µM]	solubility and stability after dissolution versus γ-glutamyl-p-nitroanilide (in words) [7]	further results
151	139	≥ 100000	148	115.94	N[C@@H](CCC(=O)Nc1ccc([N+](=O)[O-])c(CO)c1)C(=O)O [γ-L-glutamyl-3-hydroxymethyl-4-nitroanilide]	12	–	–	–	Km (γ-GTP (porcine kidney) [8]): 670 µM; Coefficient of correlation (γ-GTP (human sera); Example 7 vs Comparative Example 3, n=50 human sera): 0.9998; Coefficient of correlation (γ-GTP (human sera); Example 7 vs Comparative Example 4, n=50 human sera): 0.9998; within-run precision (in words) (γ-GTP (human sera); Table 5): good precision; Average (γ-GTP (human sera); sample 1, n=40): 66.4 IU/l; Coefficient of variation (C.V.) (γ-GTP (human sera); sample 1, n=40): 0.95; Maximum (γ-GTP (human sera); sample 1, n=40): 68 IU/l; Minimum (γ-GTP (human sera); sample 1, n=40): 66 IU/l; Average (γ-GTP (human sera); sample 2, n=40): 137.0 IU/l; Coefficient of variation (C.V.) (γ-GTP (human sera); sample 2, n=40): 0.83; Maximum (γ-GTP (human sera); sample 2, n=40): 139 IU/l; Minimum (γ-GTP (human sera); sample 2, n=40): 134 IU/l; linearity of calibration curve, upper limit [9]: about 6400 IU/l; Km (γ-GTP (bovine kidney)): 670 µM
100	100	–	100	115.02	N[C@@H](CCC(=O)Nc1ccc([N+](=O)[O-])cc1)C(=O)O [γ-L-glutamyl-p-nitroanilide, reference compound]	–	1870	1330	–	solubility (in words) [10]: slightly soluble; stability (in words) ([7]; suitable pH range for dissolution): unstable; Solubility ([3]; 37° C.): 5000 µM (≈ 1.34 mg/mL)
